Measured values taken from patent publication US6632829B2, “Sulfonamides and derivatives thereof that modulate the activity of endothelin” (Texas Biotechnology Corp., priority 1996, dated 2003).

Target: T1, human ETA receptors (Homo sapiens, UniProt P25101)
T1 construct: endogenous in cells; host or cells: TE 671 cells (ATCC HTB 139), membrane preparation
T1 sequence (P25101 21-427): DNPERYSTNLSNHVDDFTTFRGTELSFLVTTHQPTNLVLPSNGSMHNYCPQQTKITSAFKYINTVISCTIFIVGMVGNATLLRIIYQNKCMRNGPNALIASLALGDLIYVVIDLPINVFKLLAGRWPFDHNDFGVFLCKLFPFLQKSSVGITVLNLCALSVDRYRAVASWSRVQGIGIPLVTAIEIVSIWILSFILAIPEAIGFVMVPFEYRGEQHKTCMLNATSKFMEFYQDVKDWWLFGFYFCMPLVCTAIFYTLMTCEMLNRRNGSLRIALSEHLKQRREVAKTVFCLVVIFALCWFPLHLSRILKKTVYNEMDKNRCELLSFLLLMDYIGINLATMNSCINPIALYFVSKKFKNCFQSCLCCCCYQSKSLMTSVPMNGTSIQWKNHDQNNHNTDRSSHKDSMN
Experiment: Endothelin binding inhibition, Binding Test #1: competition with 125I-ET-1 for ETA receptors on TE 671 cell membranes
Settings: incubation at 24° C. (values marked †)

IC50: 1.71 nM
SMILES: Cc1cc(C)c(NC(=O)c2sccc2S(=O)(=O)Nc2onc(C)c2Cl)c(C)c1O [N-(4-chloro-3-methyl-5-isoxazolyl)-2-(3-hydroxy-2,4,6-trimethylphenylaminocarbonyl)thiophene-3-sulfonamide]
